In the experiment the target is T1, isoleucyl-tRNA synthetase (IleRS) (Escherichia coli, UniProt P00956).
T1 construct: gene ileS; full-length native enzyme purified from E. coli B; one-subunit enzyme
Description: global best fit of steady-state ATP-PPi exchange and tRNA aminoacylation rates. The class given is biochemical. Particulars: AMP·E (segment 1), competitive with MgATP; pH 7.4, 30 °C, Mg-acetate, 50 mM K-acetate, no chloride; unreliable: fitted range open above (360 <). An excerpt: global best fit of steady-state ATP-PPi exchange and tRNA aminoacylation rates on isoleucyl-tRNA synthetase (IleRS)

T1 sequence (P00956 2-938): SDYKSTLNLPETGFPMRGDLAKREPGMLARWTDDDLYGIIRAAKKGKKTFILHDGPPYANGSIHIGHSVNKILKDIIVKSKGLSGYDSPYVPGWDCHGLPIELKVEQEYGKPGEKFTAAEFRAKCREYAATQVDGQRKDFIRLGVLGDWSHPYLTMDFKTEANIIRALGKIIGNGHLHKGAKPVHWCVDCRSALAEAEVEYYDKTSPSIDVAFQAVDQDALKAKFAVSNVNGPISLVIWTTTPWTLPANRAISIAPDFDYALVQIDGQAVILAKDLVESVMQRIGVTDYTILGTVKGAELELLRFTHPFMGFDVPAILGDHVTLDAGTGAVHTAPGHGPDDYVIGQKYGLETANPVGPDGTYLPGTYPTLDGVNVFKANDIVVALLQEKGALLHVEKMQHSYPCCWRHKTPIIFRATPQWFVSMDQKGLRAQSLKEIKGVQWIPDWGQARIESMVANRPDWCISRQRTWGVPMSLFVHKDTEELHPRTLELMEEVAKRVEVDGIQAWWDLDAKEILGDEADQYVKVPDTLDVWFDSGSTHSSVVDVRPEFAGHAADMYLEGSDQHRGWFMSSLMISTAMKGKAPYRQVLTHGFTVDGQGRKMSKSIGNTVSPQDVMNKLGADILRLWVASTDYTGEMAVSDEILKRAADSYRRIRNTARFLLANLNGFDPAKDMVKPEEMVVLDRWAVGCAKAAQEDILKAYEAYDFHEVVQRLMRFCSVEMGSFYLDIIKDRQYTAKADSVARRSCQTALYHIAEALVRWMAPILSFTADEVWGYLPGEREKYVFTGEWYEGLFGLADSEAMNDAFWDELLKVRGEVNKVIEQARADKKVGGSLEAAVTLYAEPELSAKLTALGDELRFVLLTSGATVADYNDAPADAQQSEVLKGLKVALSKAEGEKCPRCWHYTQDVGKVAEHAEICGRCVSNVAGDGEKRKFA

`Nc1ncnc2c1ncn2[C@@H]1O[C@H](COP(=O)(O)O)[C@@H](O)[C@H]1O` [AMP] gave a Value of 705 µM.

For the origin of these results see publication PMC5794461, “Kinetic analysis of the isoleucyl‐tRNA synthetase mechanism: the next reaction cycle can start before the previous one ends” (FEBS Open Bio, 2017).
